The values below come from PMC12678798, “Discovery of an allosteric binding site for anthraquinones at the human P2X4 receptor” (Nature Communications, 2025).

Changes are numbered by the printed parent chain. pEC50: −log10 of the molar value.

In general, pEC50 refers to −log10 of the EC50, conventionally taken in molar units.

The target in experiment [1] is T1, human wt P2X4 receptor (Homo sapiens, UniProt Q99571).
T1 construct: expressed in transfected cells
T1 sequence (Q99571 1-388): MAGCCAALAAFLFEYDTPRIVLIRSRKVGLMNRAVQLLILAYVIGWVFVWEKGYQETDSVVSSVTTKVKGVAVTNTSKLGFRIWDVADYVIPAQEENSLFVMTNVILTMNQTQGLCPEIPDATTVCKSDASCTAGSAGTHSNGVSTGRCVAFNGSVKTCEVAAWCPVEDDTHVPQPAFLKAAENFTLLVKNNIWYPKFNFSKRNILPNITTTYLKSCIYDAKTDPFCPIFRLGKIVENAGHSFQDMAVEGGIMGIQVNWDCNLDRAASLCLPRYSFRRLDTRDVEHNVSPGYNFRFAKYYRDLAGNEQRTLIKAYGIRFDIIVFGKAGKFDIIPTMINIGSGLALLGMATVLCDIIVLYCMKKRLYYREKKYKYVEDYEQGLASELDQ
Nature of the experiment: ATP-induced calcium influx assay, human wt P2X4 receptor in 1321N1 astrocytoma cells. It counts as cell-based. The conditions noted are these: wt hP2X4; calcium influx.

Experiment [2] has as its target T2, human P2X4-E307T receptor mutant (Homo sapiens, UniProt Q99571, E307T).
T2 construct: expressed in transfected cells
T2 sequence (Q99571 1-388 E307T): T1 sequence (Q99571 1-388) with E307T
Nature of the experiment: ATP-induced calcium influx assay, P2X4-E307T mutant in 1321N1 astrocytoma cells. It is filed as cell-based. The following applies: P2X4-E307T.

Experiment [3] deals with zebrafish P2X4 receptor. Also on record: method as in PMID 19641588, PMID 12127972. The conditions noted are these: cited from earlier work.
Experiment [4] has as its target T3, chimeric P2X4(P2X2) receptor c6^N208-S216 (Homo sapiens, UniProt Q99571, I209R/N208D/S216R/T211D/T212G).
T3 sequence (Q99571 1-388 N208D/I209R/T211D/T212G/S216R): T1 sequence (Q99571 1-388) with N208D, I209R, T211D, T212G, S216R
Also on record: expressed in transfected cells; gene synthesis (Geneart), pLVX-IRES-mCherry; method as in ref 19 (supplement). The conditions noted are these: read-out: ATP EC50, published value, ref 19 (supplement); cited from earlier work.

Experiment [5] addresses T4, chimeric P2X4(P2X2) receptor c10^R301-Q308 (Homo sapiens, UniProt Q99571, A304N/D302K/DEL301-301/E307T/L303I/N306T/Q308T).
T4 construct: expressed in transfected cells; gene synthesis (Geneart), pLVX-IRES-mCherry (bicistronic, mCherry not fused)
T4 sequence (Q99571 with tags, fused parts or gaps DEL301-301/D302K/L303I/A304N/N306T/E307T/Q308T): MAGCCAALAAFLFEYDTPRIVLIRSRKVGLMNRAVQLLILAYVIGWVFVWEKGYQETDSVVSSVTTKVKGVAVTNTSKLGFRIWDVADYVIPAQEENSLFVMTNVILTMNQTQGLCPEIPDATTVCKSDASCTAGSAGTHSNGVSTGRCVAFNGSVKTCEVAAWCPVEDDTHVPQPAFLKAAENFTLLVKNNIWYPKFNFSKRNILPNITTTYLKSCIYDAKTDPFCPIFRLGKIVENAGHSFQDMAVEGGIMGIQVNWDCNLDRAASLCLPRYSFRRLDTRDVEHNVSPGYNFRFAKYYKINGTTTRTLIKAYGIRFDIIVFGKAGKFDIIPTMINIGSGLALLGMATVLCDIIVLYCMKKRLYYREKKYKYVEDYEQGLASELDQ
The experiment in a line: ATP-induced calcium influx assay, chimeric receptor c10 in 1321N1 astrocytoma cells. It is filed as cell-based.

The target in experiment [6] is chimeric P2X4(P2X2) receptor c7^I218-D224 (Homo sapiens, UniProt Q99571, A221E/D220H/I218T/K222A/T223S/Y219F). The experiment in a line: cell-based.
Chain of chimeric P2X4(P2X2) receptor c7^I218-D224 (Q99571 whole entry I218T/Y219F/D220H/A221E/K222A/T223S): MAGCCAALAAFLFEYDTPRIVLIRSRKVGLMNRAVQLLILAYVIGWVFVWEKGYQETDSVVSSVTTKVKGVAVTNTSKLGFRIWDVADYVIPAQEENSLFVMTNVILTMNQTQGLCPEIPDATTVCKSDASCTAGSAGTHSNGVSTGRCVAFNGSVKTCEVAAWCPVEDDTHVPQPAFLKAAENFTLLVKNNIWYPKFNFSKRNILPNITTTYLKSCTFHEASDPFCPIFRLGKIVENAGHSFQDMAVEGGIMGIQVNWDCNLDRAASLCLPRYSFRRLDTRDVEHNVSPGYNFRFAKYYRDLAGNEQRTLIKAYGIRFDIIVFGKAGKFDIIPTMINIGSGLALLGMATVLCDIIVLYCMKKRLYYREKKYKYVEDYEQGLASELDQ
The test system of experiment [7] is chimeric receptor c1^V71-I83. Set-up: method as in PMID 36328074. The following applies: cited from earlier work.
Experiment [8] deals with chimeric P2X4(P2X2) receptor c2-c5^C116-T186 (Homo sapiens, UniProt Q99571, A122H/A137L/A177Q/A181M/D121V/DEL149-175/E183P/G138D/H140L/INS118S/INS148CVPYYQGPSKTCEVFGWCPVEDGASV/INS179G/K127L/K180T/P120R/P176S/S131D/S136E/S141G/S145R/T123N/T124A/T133V/T139M/V125T/V144L). The experiment in a line: cell-based.
Chain of chimeric P2X4(P2X2) receptor c2-c5^C116-T186 (Q99571 with tags, fused parts or gaps isoform Q99571-3 with the stated changes): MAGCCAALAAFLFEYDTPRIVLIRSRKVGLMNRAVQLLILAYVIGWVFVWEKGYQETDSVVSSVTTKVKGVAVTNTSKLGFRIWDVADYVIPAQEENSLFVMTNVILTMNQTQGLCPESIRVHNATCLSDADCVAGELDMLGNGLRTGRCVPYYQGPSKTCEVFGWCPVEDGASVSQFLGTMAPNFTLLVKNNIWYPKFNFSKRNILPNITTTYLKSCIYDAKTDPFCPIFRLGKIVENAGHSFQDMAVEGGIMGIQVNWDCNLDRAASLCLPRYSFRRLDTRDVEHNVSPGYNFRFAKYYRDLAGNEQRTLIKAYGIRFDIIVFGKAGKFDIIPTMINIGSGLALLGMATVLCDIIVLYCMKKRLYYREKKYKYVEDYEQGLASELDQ

As to `Nc1ncnc2c1ncn2[C@@H]1O[C@H](COP(=O)(O)OP(=O)(O)OP(=O)(O)O)[C@@H](O)[C@H]1O` [ATP, Adenosine 5′-triphosphate], the pEC50 in experiment [1] was 6.45; in experiment [2], 6.04; in experiment [4], 6.24; in experiment [5], 6.04; in experiment [6], 5.92; in experiment [8] it was 5.64. Moreover, in experiment [3], the “Potency of ATP at the zebrafish P2X4 receptor lower than at the human P2X4 receptor” value was “about 700 fold”. Further, the “EC50 of ATP at c10 higher than at wt P2X4” value in experiment [5] (calcium influx) is given as 2.4 fold. In addition, the “Maximal effect of ATP compared to that of the human wt P2X4 receptor” value in experiment [7] is given as 4%.
